The source made the active and inactive calls. The calls are words filed in the database; no cut-off is given here.
Assays:
[1] = system: Rattus norvegicus; assay: Anxiolytic activity in Wistar rat assessed as increase in time spent in open sided arms at 1 mg/kg, ip measured for 5 mins in presence of GABAA receptor antagonist by elevated plus maze test; type: functional, organism-based
[2] = Neurotoxicity in Kunming mouse at 300 mg/kg, ip measured after 30 mins by rotarod test; type: toxicity, organism-based; conditions: in vivo, 0.5 h
[3] = Displacement of [3H]flunitrazepam from GABA-A receptor benzodiazepine site in mouse cerebellum synaptosomal membrane; type: subcellular, Synaptosome
[4] = system: Rattus norvegicus; assay: Anxiolytic activity in Wistar rat assessed as increase in time spent in open sided arms at 1 mg/kg, ip measured for 5 mins by elevated plus maze test; type: functional, organism-based
[5] = system: Rattus norvegicus; assay: Effect on GABA level in Wistar rat brain assessed as increase in GABA level at 30 mg/kg, ip measured after 7 days; type: functional, organism-based; conditions: time 7.0 day
[6] = system: Mus musculus; assay: Anticonvulsant activity in Kunming mouse assessed as reduction in MES-induced seizure at 100 mg/kg, ip measured after 30 mins; type: functional, organism-based
[7] = system: Mus musculus; assay: Anticonvulsant activity in Kunming mouse assessed as reduction in ScPTZ-induced seizure at 30 mg/kg, ip measured after 30 mins; type: functional, organism-based
[8] = system: Rattus norvegicus; assay: Effect on GABA level in Wistar rat brain assessed as increase in GABA level at 30 mg/kg, ip measured after 2 hrs; type: functional, organism-based
[9] = Neurotoxicity in ip dosed Kunming mouse measured after 30 mins by rotarod test; type: toxicity, organism-based; conditions: in vivo
[10] = system: Mus musculus; assay: Anticonvulsant activity in ip dosed Kunming mouse assessed as reduction in MES-induced seizure measured after 30 mins; type: functional; conditions: 0.5 h
[11] = Neurotoxicity in Kunming mouse at 100 mg/kg, ip measured after 30 mins by rotarod test; type: toxicity, organism-based; conditions: in vivo, 0.5 h
[12] = Protection index, ratio of TD50 for neurotoxicity in ip dosed Kunming mouse to ED50 for anticonvulsant activity in ip dosed ScPTZ-induced Kunming mouse; type: toxicity, organism-based; conditions: in vivo, read-out: TI
[13] = system: Mus musculus; assay: Anticonvulsant activity in ip dosed Kunming mouse assessed as reduction in ScPTZ-induced seizure measured after 30 mins; type: functional; conditions: 0.5 h
[14] = system: Mus musculus; assay: Anticonvulsant activity in Kunming mouse assessed as reduction in ScPTZ-induced seizure at 100 mg/kg, ip measured after 30 mins; type: functional, organism-based
[15] = Protection index, ratio of TD50 for neurotoxicity in ip dosed Kunming mouse to ED50 for anticonvulsant activity in ip dosed MES-induced Kunming mouse; type: toxicity, organism-based; conditions: in vivo, read-out: TI
[16] = system: Mus musculus; assay: Anticonvulsant activity in Kunming mouse assessed as reduction in MES-induced seizure at 30 mg/kg, ip measured after 30 mins; type: functional, organism-based
[17] = Neurotoxicity in Kunming mouse at 30 mg/kg, ip measured after 30 mins by rotarod test; type: toxicity, organism-based; conditions: in vivo, 0.5 h

In the case of `CCCCCSc1nnc(COc2ccc3c(c2)CCC(=O)N3)o1`, the Activity [1] is reported as “inactive”, the Activity [2] is reported as “Non-Toxic” and the IC50 [3] is reported as 110 nM. For the same compound, the Activity [4] was “Active”, the Activity [5] was “Active” and the Activity [6] was “Active”. For the same compound, the Activity [7] was “Active”, the Activity [8] was “Active” and the TD50 at 0.5 h [9] was 575 mg/kg. For the same compound, the ED50 [10] was 8.9 mg/kg, the Activity [11] was “Non-Toxic” and the selectivity ratio [12] was 56.4. The ED50 [13] was 10.2 mg/kg, the Activity [14] was “Active” and the selectivity ratio [15] was 64.6. For the same compound, the Activity [16] was “Active”.

With `NC(=O)N1c2ccccc2C=Cc2ccccc21` [CARBAMAZEPINE] the ED50 [10] was 11.8 mg/kg, the Activity [17] was “Non-Toxic” and the selectivity ratio [15] was 6.4. The Activity [16] was “Active”.
